According to ChEMBL document CHEMBL1132209, “Design, synthesis, and activity of 2,6-diphenoxypyridine-derived factor Xa inhibitors” (J Med Chem, 1999):
pKi: −log10 of the molar value.

How the values were obtained:
[1] = molecular target: T1, Serine protease 1 (Bos taurus, UniProt P00760); assay: Compound was tested for inhibition activity against bovine trypsin.
T1 sequence (P00760 whole entry): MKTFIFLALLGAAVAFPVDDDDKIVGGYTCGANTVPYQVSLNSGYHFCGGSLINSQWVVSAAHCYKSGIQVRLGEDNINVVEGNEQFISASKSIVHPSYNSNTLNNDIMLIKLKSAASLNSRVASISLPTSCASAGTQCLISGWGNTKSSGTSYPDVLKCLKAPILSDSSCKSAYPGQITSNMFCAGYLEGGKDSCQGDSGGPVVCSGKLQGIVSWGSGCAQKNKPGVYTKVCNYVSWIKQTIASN

[2] = molecular target: Prothrombin (Homo sapiens, UniProt P00734); assay: Compound was tested for inhibition activity against human thrombin (FIIa)
[3] = molecular target: Coagulation factor X (Homo sapiens, UniProt P00742); assay: Compound was tested for inhibition activity against Coagulation factor X
Coagulation factor X, sequence (P00742 41-179 limits assumed): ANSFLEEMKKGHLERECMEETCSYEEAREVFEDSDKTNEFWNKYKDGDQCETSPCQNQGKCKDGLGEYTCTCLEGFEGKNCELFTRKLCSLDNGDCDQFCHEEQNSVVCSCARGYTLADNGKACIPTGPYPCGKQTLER
Coagulation factor X, sequence (P00742 235-488 limits assumed): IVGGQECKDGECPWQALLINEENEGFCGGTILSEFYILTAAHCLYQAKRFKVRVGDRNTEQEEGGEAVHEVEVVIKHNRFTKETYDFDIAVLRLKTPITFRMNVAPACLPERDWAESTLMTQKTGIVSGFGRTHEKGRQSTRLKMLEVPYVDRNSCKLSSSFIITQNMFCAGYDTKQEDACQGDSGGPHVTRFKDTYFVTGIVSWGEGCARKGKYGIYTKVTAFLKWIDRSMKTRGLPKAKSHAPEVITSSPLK

Row | SMILES | pKi [1] | pKi [2] | pKi [3]
1 | N=C(N)c1cccc(Oc2ccc(NC(=O)c3ccccc3)c(Oc3cccc(C(=N)N)c3)n2)c1 | 6.59 | 5.47 | 6.92
2 | CNC(=O)c1ccc(Oc2cccc(C(=N)N)c2)nc1Oc1cccc(C(=N)N)c1 | 5.85 | < 5.30 | 6.64
3 | N=C(N)c1cccc(Oc2ccc(NC(=O)NCC(N)=O)c(Oc3cccc(C(=N)N)c3)n2)c1 | 6.55 | < 5.30 | 6.96
4 | N=C(N)c1cccc(Oc2ccc(NC(=O)Nc3ccccc3)c(Oc3cccc(C(=N)N)c3)n2)c1 | 7.00 | 5.47 | 7.21
5 | N=C(N)c1cccc(Oc2ccnc(Oc3cccc(C(=N)N)c3)n2)c1 | 6.12 | < 5.30 | 6.92
6 | N=C(N)c1cccc(Oc2ccc(C(=O)O)c(Oc3cccc(C(=N)N)c3)n2)c1 | 5.66 | < 4.00 | 7.02
7 | N=C(N)c1ccccc1Oc1cccc(Oc2ccccc2C(=N)N)n1 |  |  | < 5.30
8 | CCOC(=O)c1ccc(Oc2cccc(C(=N)N)c2)nc1Oc1cccc(C(=N)N)c1 | 6.04 | < 5.30 | 6.72
9 | N=C(N)c1ccc(Oc2cccc(Oc3ccc(C(=N)N)cc3)c2)cc1 | 6.00 | 5.31 | 6.01
10 | N=C(N)c1cccc(Oc2ccc(C(N)=O)c(Oc3cccc(C(=N)N)c3)n2)c1 | 5.92 | < 5.30 | 6.22
11 | CS(=O)(=O)Nc1ccc(Oc2cccc(C(=N)N)c2)nc1Oc1cccc(C(=N)N)c1 | 5.72 | < 5.30 | 6.89
12 | N=C(N)c1ccc(Oc2cc(Oc3ccc(C(=N)N)cc3)c(Cl)cc2Cl)cc1 | 5.74 | 5.60 | 5.96
13 | N=C(N)c1cccc(Oc2ccc(C(=O)NCC(N)=O)c(Oc3cccc(C(=N)N)c3)n2)c1 | 5.70 | < 5.30 | 6.16
14 | N=C(N)c1cccc(Oc2cc(Oc3ccccc3C(=N)N)ccc2N)c1 |  |  | 5.96
15 | Cc1c(F)c(N(C)c2cccc(C(=N)N)c2)nc(N(C)c2cccc(C(=N)N)c2)c1F | 6.44 | 6.44 | 7.01
16 | N=C(N)c1cccc(Oc2ccc(C(F)(F)F)c(Oc3cccc(C(=N)N)c3)n2)c1 | 6.11 | < 5.30 | 6.96
17 | Cc1c(F)c(Nc2cccc(C(=N)N)c2)nc(Oc2cccc(C(=N)N)c2)c1F | 5.51 | < 5.30 | 6.18
18 | N=C(N)c1cccc(Oc2c[nH]c(=O)c(Oc3cccc(C(=N)N)c3)n2)c1 | 6.12 | < 5.30 | 6.72
19 | N=C(N)c1cccc(Oc2cc(Oc3ccccc3C(=N)N)ccc2[N+](=O)[O-])c1 |  |  | 6.52
20 | N=C(N)c1ccc(Oc2cccc(Oc3ccccc3C(=N)N)n2)cc1 | 5.72 | 5.92 | 6.89

The next compounds have a higher pKi [3] than those just listed; values first:

Row | pKi [1] | pKi [2] | pKi [3] | SMILES
21 | 6.11 | 5.22 | 7.38 | N=C(N)c1cccc(Oc2cc(C(N)=O)cc(Oc3cccc(C(=N)N)c3)n2)c1
22 | 6.01 | < 5.30 | 7.29 | N=C(N)c1cccc(Oc2cncc(Oc3cccc(C(=N)N)c3)n2)c1
23 | 5.89 | < 5.30 | 7.28 | N=C(N)c1cccc(Oc2ccc(N)c(Oc3cccc(C(=N)N)c3)n2)c1
24 | 7.48 | 6.28 | 9.18 | N=C(N)c1ccc(/C=C2\CCCC/C(=C\c3ccc(C(=N)N)cc3)C2=O)cc1
25 | 6.12 | 5.38 | 7.22 | CNC(=O)c1cc(Oc2cccc(C(=N)N)c2)nc(Oc2cccc(C(=N)N)c2)c1
26 | 6.10 | 4.96 | 7.47 | CCOC(=O)c1cc(Oc2cccc(C(=N)N)c2)nc(Oc2cccc(C(=N)N)c2)c1
27 | 5.96 | < 5.30 | 7.64 | COc1c(F)c(Oc2cccc(C(=N)N)c2)nc(Oc2cccc(C(=N)N)c2)c1F
28 | 5.92 | < 5.30 | 7.28 | CC(=O)Nc1ccc(Oc2cccc(C(=N)N)c2)nc1Oc1cccc(C(=N)N)c1
29 | 6.08 | < 5.30 | 7.23 | CNC(=O)Nc1ccc(Oc2cccc(C(=N)N)c2)nc1Oc1cccc(C(=N)N)c1
30 | 6.16 | 5.72 | 7.92 | Cc1c(F)c(Oc2cccc(C(=N)N)c2)nc(N(C)c2cccc(C(=N)N)c2)c1F
31 | 6.11 | < 5.30 | 7.49 | CN(C)C(=O)c1ccc(Oc2cccc(C(=N)N)c2)nc1Oc1cccc(C(=N)N)c1
